Laboratory results taken from patent US7622471B2, “Pyrazole derivatives having a pyridazine and pyridine functionality” (Daiichi Pharmaceutical Co., Ltd., priority 2003, dated 2009).
pIC50: −log10 of the molar value. Read-outs that look alike come from different tables or passages of the source.

Assays:
[1] = tested on: collagen-induced platelet aggregation; conditions: prior-art compound, cited from earlier work
[2] = tested on: collagen-induced platelet aggregation; assay: Platelet aggregation-inhibiting action (collagen-induced aggregation of human platelet rich plasma); assay type: cell-based; conditions: human PRP, read-out: Inhibition of collagen-induced platelet aggregation, IC50
Protocol: Human blood was collected in the presence of 3.13% sodium citrate as an anticoagulant in a volume 1/10 the blood volume. The collected blood was centrifuged at 180 g for 10 minutes so as to separate the upper layer; i.e., platelet rich plasma (PRP) from the blood. The remaining lower layer was further centrifuged at 1600 g for 10 minutes, and platelet poor plasma (PPP); i.e., the thus-obtained upper layer, was collected. A solution (1 μL) of the inventive compound was added to PRP (200 μL), and the mixture was allowed to stand at 37° C. for 2 minutes. Subsequently, collagen (2 μL) was added to the resultant mixture so as to induce platelet aggregation. Percent platelet aggregation was measured by means of PAM-12C(SSR Engineering). Optical transmittance of PPP was employed as the value reflecting the state in which 100% coagulation occurred. Percent platelet aggregation values of PRP were determined at a series of concentrations of each Example compound. From the determined values, IC50 with respect to each compound was calculated.

cyclooxygenase-1 (COX-1) = target: T1, cyclooxygenase-1 (COX-1) (Ovis aries, UniProt P05979); assay: Inhibitory effect on COX-1 (COX Inhibitor Screening Assay Kit, PGF2α ELISA); assay type: biochemical; conditions: 50 μM compound
T1 construct: purchased Cayman Chemical Company 560101 and 560121
T1 sequence (P05979 25-600): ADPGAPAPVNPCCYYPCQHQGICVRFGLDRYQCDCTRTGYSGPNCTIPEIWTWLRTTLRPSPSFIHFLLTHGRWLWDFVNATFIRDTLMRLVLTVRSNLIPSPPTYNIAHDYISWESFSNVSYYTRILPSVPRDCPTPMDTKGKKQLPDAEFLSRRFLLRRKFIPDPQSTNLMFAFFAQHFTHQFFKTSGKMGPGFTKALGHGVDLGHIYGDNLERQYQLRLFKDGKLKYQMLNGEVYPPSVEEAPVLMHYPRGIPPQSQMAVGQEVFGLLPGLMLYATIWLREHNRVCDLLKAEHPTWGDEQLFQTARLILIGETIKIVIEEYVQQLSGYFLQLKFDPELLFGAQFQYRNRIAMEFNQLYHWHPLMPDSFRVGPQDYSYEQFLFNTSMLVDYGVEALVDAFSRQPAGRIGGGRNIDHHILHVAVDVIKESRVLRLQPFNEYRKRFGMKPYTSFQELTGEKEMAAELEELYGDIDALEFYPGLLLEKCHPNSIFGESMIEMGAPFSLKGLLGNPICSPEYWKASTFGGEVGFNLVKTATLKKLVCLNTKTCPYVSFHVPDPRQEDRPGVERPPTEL
Protocol: (§1) Inhibitory activity against COX-1 and COX-2 of the compounds produced in the Examples was measured using a COX Inhibitor Screening Assay Kit (product of Cayman Chemical Company, Catalog Nos. 560101 and 560121).
(§2) Before starting the measurement, reaction buffer, heme, arachidonic acid, SnCl2, EIA buffer, washing buffer, prostaglandin (PG) screening EIA standard, PG screening acetylcholine esterase (AchE), tracer (chromogenic enzyme […] conjugate), and PG screening EIA antiserum were prepared ready for use.
(§3) (1) Production of PGF2α in the Presence of COX-1 or COX-2
(§4) A reaction mixture containing the compound of the Examples (50 μM) and COX-1 or COX-2 was incubated at 37° C. for 10 minutes. Arachidonic acid (10 μL) was added thereto, and the resultant mixture was further incubated at 37° C. for 2 minutes. 1N-Hydrochloric acid (50 μL) was added to the reaction mixture, to thereby stop the reaction. SnCl2 solution (100 μL) was added thereto, and the resultant mixture was kept at room temperature for 5 minutes.
(§5) (2) Quantitative Determination of PGF2α through ELISA
(§6) Antiserum (rabbit anti-PGF2αantibody, 50 μL) was added to the wells of 96 well plate that had been coated with mouse anti-rabbit IgG. A solution of PGF2α-containing mixture obtained above (2000-fold dilution, 50 μL) and AchE tracer (50 μL) were added to the well in this order, and the mixture was incubated at room temperature for 18 hours. The wells were washed 5 times with the washing buffer to remove an excessive AchE tracer, and Ellman reagent (200 μL) was added. After keeping the plate in a dark room for 60 minutes, absorbance at 405 nm was measured.
(§7) (3) Calculation of Inhibitory Activity of the Compound of the Examples
(§8) A calibration curve was obtained by use of the PG screening EIA standard, and the production amount of PGF2α was determined from the absorbance. Percent inhibition of COX-1 or COX-2 activity at 50 μM of the compound of the Examples was calculated.

cyclooxygenase-2 (COX-2) = target: T2, cyclooxygenase-2 (COX-2) (Homo sapiens, UniProt P35354); assay: Inhibitory effect on COX-2 (COX Inhibitor Screening Assay Kit, PGF2α ELISA); assay type: biochemical; conditions: 50 μM compound
T2 construct: purchased Cayman Chemical Company 560101 and 560121
T2 sequence (P35354 18-604): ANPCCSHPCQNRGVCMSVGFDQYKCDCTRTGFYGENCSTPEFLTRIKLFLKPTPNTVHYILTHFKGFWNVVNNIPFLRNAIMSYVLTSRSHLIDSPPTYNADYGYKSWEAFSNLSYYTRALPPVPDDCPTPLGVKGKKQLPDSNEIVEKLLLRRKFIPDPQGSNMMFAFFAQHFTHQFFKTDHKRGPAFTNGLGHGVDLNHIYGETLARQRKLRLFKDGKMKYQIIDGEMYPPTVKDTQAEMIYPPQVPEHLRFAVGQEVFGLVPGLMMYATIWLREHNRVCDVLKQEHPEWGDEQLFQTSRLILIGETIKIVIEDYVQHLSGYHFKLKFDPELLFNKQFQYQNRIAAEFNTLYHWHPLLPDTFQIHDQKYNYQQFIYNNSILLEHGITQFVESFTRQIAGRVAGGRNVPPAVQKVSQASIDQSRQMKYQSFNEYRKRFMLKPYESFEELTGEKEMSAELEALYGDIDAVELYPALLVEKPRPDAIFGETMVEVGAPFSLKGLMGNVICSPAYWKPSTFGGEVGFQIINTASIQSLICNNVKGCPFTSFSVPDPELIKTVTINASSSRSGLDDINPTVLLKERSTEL
Protocol: as §1, §2, §3, §4, §5, §6, §7, §8

[3] = not dose-dependent; cited from earlier work

COc1ccc(-c2cc(C(F)F)nn2-c2ccc(S(N)(=O)=O)cc2)cc1F [compound (B)]
platelet aggregation inhibitory activity compared with inhibitory activity against COX-2 ([1]; in words): not so potent

COc1ccc(-n2nc(C(=O)N3CCCCN3C(C)=O)cc2-c2ccccn2)cn1 [Example 163, 1-[1-(6-Methoxy-3-pyridyl)-5-(2-pyridyl)pyrazole-3-carbonyl]-2-acetylhexahydropyridazine]
pIC50 [2]: 7.05

COc1ccc(-n2nc(C(=O)N3CCOCC3)cc2-c2ccc[nH]2)cn1 [Example 168, 4-[1-(6-Methoxy-3-pyridyl)-5-(pyrrol-2-yl)pyrazole-3-carbonyl]morpholine]
pIC50 [2]: 7.77

COc1ccc(-n2nc(C(=O)N3CCC(F)(F)CC3)cc2-c2ccccn2)nn1 [Example 139, 1-[1-(6-Methoxy-3-pyridazinyl)-5-(2-pyridyl)pyrazole-3-carbonyl]-4,4-difluoropiperidine]
pIC50 [2]: 7.38 | Inhibitory effect against COX-1 at 50 μM (% inhibition) (cyclooxygenase-1 (COX-1)): 7.6 % inhibition | Inhibitory effect against COX-2 at 50 μM (% inhibition) (cyclooxygenase-2 (COX-2)): 3.4 % inhibition

COc1ccc(-n2nc(C(=O)N3CCN(C)C(=O)C3)cc2-c2ccccn2)cn1 [Example 23, 1-[1-(6-Methoxy-3-pyridyl)-5 (2-pyridyl)pyrazole-3-carbonyl]-4-methyl-3-oxopiperazine]
pIC50 [2]: 6.77 | Inhibitory effect against COX-1 at 50 μM (% inhibition) (cyclooxygenase-1 (COX-1)): −1.2 % inhibition | Inhibitory effect against COX-2 at 50 μM (% inhibition) (cyclooxygenase-2 (COX-2)): 3.4 % inhibition

COc1ccc(-n2nc(C(=O)N3CC(N(C)C)C3)cc2-c2ccccc2)cn1 [Example 70, 1-[1-(6-Methoxy-3-pyridyl)-5-phenylpyrazole-3-carbonyl]-3-dimethylaminoazetidine]
pIC50 [2]: 6.59

COc1ccc(-n2nc(C(=O)N3CCN(C)CC3)cc2-c2ccccc2)cn1 [Example 62, 1-[1-(6-Methoxy-3-pyridyl)-5-phenylpyrazole-3-carbonyl]-4-methylpiperazine]
pIC50 [2]: 6.92 | Inhibitory effect against COX-1 at 50 μM (% inhibition) (cyclooxygenase-1 (COX-1)): −2.4 % inhibition | Inhibitory effect against COX-2 at 50 μM (% inhibition) (cyclooxygenase-2 (COX-2)): −2.6 % inhibition

CS(=O)(=O)c1ccc(-c2cc(C#N)nn2-c2ccc(F)cc2)cc1 [Compound (A)]
pIC50 ([1]; read-out: IC50 value against collagen-induced platelet aggregation): 5.28

COc1ccc(-n2nc(C(=O)N3CCN(C4CC4)CC3)cc2-c2ccccn2)cn1 [Example 55, 1-[1-(6-Methoxy-3-pyridyl)-5-(2-pyridyl)pyrazole-3-carbonyl]-4-cyclopropylpiperazine]
pIC50 [2]: 7.46

COc1ccc(-n2nc(C(=O)N3CCN(C)CC3)cc2-c2cnccn2)cn1 [Example 148, 1-[1-(6-Methoxy-3-pyridyl)-5-(2-pyrazinyl)pyrazole-3-carbonyl]-4-methylpiperazine]
pIC50 [2]: 7.05

COc1ccc(-n2nc(C(=O)N3CCOCC3)cc2-c2ccccn2)cn1 [Example 36, 4-[1-(6-Methoxy-3-pyridyl)-5-(2-pyridyl)pyrazole-3-carbonyl]morpholine]
pIC50 [2]: 6.85

COc1cnc(-n2nc(C(=O)N3CCN(C)CC3)cc2-c2ccccn2)cn1 [Example 144, 1-[1-(5-Methoxy-2-pyrazinyl)-5-(2-pyridyl)pyrazole-3-carbonyl]-4-methylpiperazine]
pIC50 [2]: 6.36 | Inhibitory effect against COX-1 at 50 μM (% inhibition) (cyclooxygenase-1 (COX-1)): 9.7 % inhibition | Inhibitory effect against COX-2 at 50 μM (% inhibition) (cyclooxygenase-2 (COX-2)): 8.8 % inhibition

COc1ccc(-n2nc(C(=O)N3CCN(C)CC3)cc2-c2ccc[nH]2)cn1 [Example 167, 1-[1-(6-Methoxy-3-pyridyl)-5-(pyrrol-2-yl)pyrazole-3-carbonyl]-4-methylpiperazine]
pIC50 [2]: 7.54

COc1ccnc(-c2cc(C(=O)N3CCN(C)CC3)nn2-c2ccc(OC)nc2)c1 [Example 27, 1-[1-(6-Methoxy-3-pyridyl)-5-(4-methoxy-2-pyridyl)pyrazole-3-carbonyl]-4-methylpiperazine]
pIC50 [2]: 6.57 | Inhibitory effect against COX-1 at 50 μM (% inhibition) (cyclooxygenase-1 (COX-1)): 0.5 % inhibition | Inhibitory effect against COX-2 at 50 μM (% inhibition) (cyclooxygenase-2 (COX-2)): −0.1 % inhibition

COc1ccc(-n2nc(C(=O)N3CCCOCC3)cc2-c2ccccn2)cn1 [Example 160, 4-[1-(6-Methoxy-3-pyridyl)-5-(2-pyridyl)pyrazole-3-carbonyl]-1,4-oxazepane]
pIC50 [2]: 6.77

COc1ccc(-n2nc(C(=O)N3CCCC(F)(F)C3)cc2-c2ccccn2)nn1 [Example 140, 1-[1-(6-Methoxy-3-pyridazinyl)-5-(2-pyridyl)pyrazole-3-carbonyl]-3,3-difluoropiperidine]
pIC50 [2]: 6.96

CC(=O)Oc1ccccc1C(=O)O [Aspirin]
rate of side effects such as hemorrhage in gastrointestine (aspirin-induced ulcer) [3]: about 1 per 100 patients

COc1ccc(-n2nc(C(=O)N3CCCCC3)cc2-c2ccccn2)nn1 [Example 122, 1-[1-(6-Methoxy-3-pyridazinyl)-5-(2-pyridyl)pyrazole-3-carbonyl] piperidine]
pIC50 [2]: 6.12 | Inhibitory effect against COX-1 at 50 μM (% inhibition) (cyclooxygenase-1 (COX-1)): 1 % inhibition | Inhibitory effect against COX-2 at 50 μM (% inhibition) (cyclooxygenase-2 (COX-2)): 4.5 % inhibition

COc1ccc(-n2nc(C(=O)N3CCN(C)CC3)cc2-c2ccccn2)nn1 [Example 132, 1-[1-(6-Methoxy-3-pyridazinyl)-5-(2-pyridyl)pyrazole-3-carbonyl]-4-methylpiperazine]
pIC50 [2]: 6.40 | Inhibitory effect against COX-1 at 50 μM (% inhibition) (cyclooxygenase-1 (COX-1)): 2.7 % inhibition | Inhibitory effect against COX-2 at 50 μM (% inhibition) (cyclooxygenase-2 (COX-2)): 10.5 % inhibition
